Results on 47 molecules are retold here after patent publication US20250340543A1, “GPR84 ANTAGONISTS AND USES THEREOF” (Liminal BioSciences Limited, priority 2021, published 2025).

SMILES strings stand for the structures.

Chain of GPR84 (Q9NQS5 whole entry): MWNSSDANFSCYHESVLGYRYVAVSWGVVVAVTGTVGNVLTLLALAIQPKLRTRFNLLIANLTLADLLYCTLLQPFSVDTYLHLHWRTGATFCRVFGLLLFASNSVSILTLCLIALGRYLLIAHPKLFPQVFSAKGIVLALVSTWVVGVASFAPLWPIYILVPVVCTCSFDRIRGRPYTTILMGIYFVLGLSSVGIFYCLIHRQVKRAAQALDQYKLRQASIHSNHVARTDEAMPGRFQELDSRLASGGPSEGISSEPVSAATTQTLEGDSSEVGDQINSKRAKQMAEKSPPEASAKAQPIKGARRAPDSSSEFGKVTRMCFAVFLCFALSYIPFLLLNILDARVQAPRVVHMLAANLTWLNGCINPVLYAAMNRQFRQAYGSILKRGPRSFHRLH

For the first assay, the target named is GPR84 (Homo sapiens (Human), UniProt Q9NQS5). Briefly: Gai biosensor BRET assay (GPR84-mediated activation of Gai, antagonist mode against agonist ZQ-16). The format is cell-based. The following applies: HEK293 cells, 200 nmol/L GPR84 agonist ZQ-16, read-out: hGPR84 IC50. The source says:
Background—The following assays can be used for determination of GPR84 activation in living HEK293 cells. […] The Gai biosensor consists of a Rluc8-tagged Gαi2 subunit, a GFP10-tagged Gγ2 subunit, and an untagged Gβ1. […] Moreover, signaling functions of GPCRs are tightly regulated by endocytosis, the targeting of receptors to endosomes and their sorting to lysosomes or recycling to the plasma membrane. […] Agonist stimulation of GPR84—Rluc8 leads to trafficking of the receptor to EEs, and ensuing increase of the donor concentration relative to the rGFP-FYVE acceptor anchored in the same cellular compartment, and thus results in an increase in BRET signal.
Plasmids—The cDNA clones for human GPR84 receptor, human Gαi2, Gβ1, and Gγ2 were obtained from the cDNA Resource Center (www.cdna.org). GFP10 (F64L, S147P, S202F and H231L variant of Aequorea victoria Green Fluorescent Protein) gBlocks gene fragments (Integrated DNA Technologies, IA) and linker were inserted in frame at the N-terminus of human Gγ2. Rluc8 (A55T, C124A, S130A, K136R, A143M, M185V, M253L, and S287L variant of the Renilla renformis luciferase) gBlocks gene fragment was inserted with linkers in frame in between residues 91 and 92 of Gαi2 or at the C-terminus of GPR84. The FYVE domain from human endofin (residues Q739 to K806) attached in frame at the C terminus of a humanized Renilla GFP (rGFP), were synthesized as gBlocks gene fragments.
Bioluminescence Resonance Energy Transfer (BRET) Measurement—HEK293 cells were transfected with GPR84—Rluc8 and rGFP-FYVE for the EEs trafficking biosensor or with GPR84, Gαi2—Rluc8, GFP10-Gγ2, and Gβ1 for the Gai biosensor. The following day, transiently transfected cells were seeded in 96-well white clear bottom microplates coated with poly-D-lysine and left in culture for 24 hours. Cells were washed once with Tyrode's buffer (140 mmol/L NaCl, 1 mmol/L CaCl2, 2.7 mmol/L KCl, 0.49 mmol/L MgCl2, 0.37 mmol/L NaH2PO4, 5.6 mmol/L glucose, 12 mmol/L NaHCO3, and 25 mmol/L HEPES, pH 7.5) before performing assays in Tyrode's buffer. Test compounds were incubated with cells for 5 (Gai) or 15 (EEs) minutes at 37° C. before addition of 200 nmol/L of the GPR84 agonist ZQ-16 (2-(Hexylthio)-6-hydroxy-4(3H)-pyrimidinone) for 5 minutes at room temperature (Gai) or 30 minutes at 37° C. (EEs). The Rluc8 substrate coelenterazine 400A (Prolume, Lakeside, AZ) was added at a final concentration of […] and BRET readings were collected using an Infinite M1000 microplate reader (Tecan, Morrisville, NC). BRET^2 readings between Rluc8 and GFP10 or rGFP were collected by sequential integration of the signals detected in the 370 to 450 nm (Rluc8) and 510 to 540 nm (GFP10, rGFP) windows. The BRET signal was calculated as the ratio of light emitted by acceptor (GFP10, rGFP) over the light emitted by donor (Rluc8). The values were corrected to net BRET by subtracting the background BRET signal obtained in cells transfected with Rluc8 constructs alone. Ligand-promoted net BRET values were calculated by subtracting vehicle-induced net BRET from ligand-induced net BRET.
Turning to `Cc1cc(OC[C@H]2COCCO2)cc(=O)n1[C@H](C)c1ccc(C#CC2CC2)cc1` (stereo in doubt) [Compound I-7], the IC50 is under 5 µM.
Regarding `Cc1cc(OCC2COCCO2)cc(=O)n1C(C)c1ccc(C#CC2CC2)cc1` (stereo not drawn) [Compound I-1], the IC50 is under 5 µM.
On to `COc1cc(OCC2CCOCC2)cc(-c2ccc(-c3ccc(C)nc3)cc2C)n1` [Compound I-3], for which the half-inhibitory concentration (IC50) is under 5 µM.
Regarding `C(#CC1CC1)c1ccc(-c2cncc(OCC3CCCCO3)c2)cc1` (stereo not drawn) [Compound I-25], the IC50 was 5 to 10 µM.
Same read-out and setting: the figure for `CCn1c(-c2ccc(C#CC3CC3)cc2)cc(OCC2COCCO2)cc1=O` (stereo not drawn) [Compound I-26] is 10 to 15 µM; for `Cc1cc(OCC2COCCO2)cc(=O)n1Cc1ccc(C#CC2CC2)cc1` (stereo not drawn) [Compound I-35] it is under 5 µM.
Still for that read-out and setting: the figure for `COc1cc(OCC2COCCO2)cc(-c2ccc(-c3ccc(C)nc3)cc2C)n1` (stereo not drawn) [Compound I-36] is under 5 µM.
Still for that read-out and setting: the figure for `COc1cc(OCC2COCCO2)cc(-c2ccc(OCc3ccccn3)cc2C)n1` (stereo not drawn) [Compound I-37] is under 5 µM.

Still in this assay, the particulars now being: compound tested at 10 μM (concentration code D).
Turning to `Cc1cc(OC[C@H]2COCCO2)cc(=O)n1[C@H](C)c1ccc(C#CC2CC2)cc1` (stereo in doubt) [Compound I-7], the inhibition at 10 µM is over 75%.
With `Cc1cc(OCC2CCOCC2)cc(=O)n1[C@H](C)c1ccc(C#CC2CC2)cc1` (stereo in doubt) [Compound I-20], the inhibition at 10 µM was in the range of 50 to 75%.
For the molecule `Cc1cc(OCC2CCOCC2)cc(=O)n1[C@H](C)c1ccc(C#CCO)cc1` (stereo in doubt) [Compound I-61], the inhibition at 10 µM is 25 to 50%.
`COCC#Cc1ccc([C@@H](C)n2c(C)cc(OCC3CCOCC3)cc2=O)cc1` (stereo in doubt) [Compound I-83] registered an inhibition at 10 µM of under 25%.
Take `Cc1cc(OC[C@@H]2COCCO2)cc(=O)n1[C@@H](C)c1ccc(C#CC2CC2)cc1` (stereo in doubt) [Compound I-89]: the inhibition at 10 µM was under 25%.
Molecule `Cc1cc(OC[C@@H]2CCCCO2)cc(=O)n1[C@H](C)c1ccc(C#CC2CC2)cc1` (stereo in doubt) [Compound I-144] returned an inhibition at 10 µM of over 75%.
The same measure, in the same setting: the figure for `Cc1cc(OCC2COCCO2)cc(=O)n1[C@H](CO)c1ccc(C#CC2CC2)cc1` (stereo in doubt) [Compound I-147] is 25 to 50%; for `Cc1cc(OCC2CCOCC2)cc(=O)n1[C@H](C)c1ccc(N2CC(C)(C)C2)cc1` (stereo in doubt) [Compound I-148] it is 25 to 50%.
Still for that read-out and setting: the figure for `Cc1cc(OCc2ncccn2)cc(=O)n1[C@H](C)Cc1ccc(C#CC2CC2)cc1` (stereo in doubt) [Compound I-276] is over 75%; for `Cc1cc(OCc2ncccn2)cc(=O)n1[C@@H](C)Cc1ccc(C#CC2CC2)cc1` (stereo in doubt) [Compound I-277] it is under 25%; for `Cc1cc(OCc2ncccn2)cc(=O)n1[C@H](C)Cc1cccc(C#CC2CC2)c1` (stereo in doubt) [Compound I-281] it is under 25%.
In turn, `Cc1cc(OCc2ncccn2)cc(=O)n1[C@@H](C)Cc1cccc(C#CC2CC2)c1` (stereo in doubt) [Compound I-282] had an inhibition at 10 µM of under 25%.
`Cc1cc(OC[C@@H]2COCCO2)cc(=O)n1[C@H](C)c1ccc(C#CC2CC2)cc1` [Compound I-6] came in with an inhibition at 10 µM of over 75%.
On the same count and under the same terms, the figure for `CC(c1ccc(C#CC2CC2)cc1)n1ccc(OCC2COCCO2)cc1=O` (stereo not drawn) [Compound I-13] is over 75%; for `Cc1cc(OCC2COCCO2)cc(=O)n1Cc1cccc(C#CCNc2ccccc2)c1` (stereo not drawn) [Compound I-14] it is under 25%; for `CCC(c1ccc(C#CC2CC2)cc1)n1c(C)cc(OCC2COCCO2)cc1=O` (stereo not drawn) [Compound I-21] it is 50 to 75%.
Take `Cc1nc(OCc2ccc(C#CC3CC3)cc2C)cc(OCC2COCCO2)n1` (stereo not drawn) [Compound I-23]: the inhibition at 10 µM is under 25%.
On to `Cc1cc(OC[C@H]2COCCO2)cc(=O)n1Cc1ccc(F)c(C#CC2CC2)c1` [Compound I-28], for which the inhibition at 10 µM was under 25%.
For `Cc1cc(OCC(F)(F)F)ccc1-c1cncc(OC[C@H]2COCCO2)c1` [Compound I-32], the inhibition at 10 µM lay in the range of 25 to 50%.
Still for that read-out and setting: the figure for `Cc1cc(C#CC2CC2)ccc1-c1cncc(OCC2COCCO2)c1` (stereo not drawn) [Compound I-43] is 25 to 50%; for `Cc1cc(OC[C@H]2COCCO2)cc(=O)n1[C@@H](C)c1ccc(C#CC2CC2)cc1` [Compound I-44] it is 25 to 50%.

Staying with this assay, now noted: compound tested at 12.5 μM (concentration code E).
The molecule `COc1cc(OCC2COCCO2)cc(-c2ccc(OCc3ccccn3)cc2)n1` (stereo not drawn) [Compound I-15] displayed an inhibition at 12.5 µM of under 25%.
On the same count and under the same terms, the figure for `C(#CC1CC1)c1ccc(-c2cncc(OCC3CCCCO3)c2)cc1` (stereo not drawn) [Compound I-25] is 50 to 75%.

Still in this assay, the particulars now being: compound tested at 25 μM (concentration code G).
Regarding `O=c1ncc(-c2ccc(C#CC3CC3)cc2)cn1C[C@H]1CCCCO1` (stereo in doubt) [Compound I-80, 5-(4-(cyclopropylethynyl)phenyl)-1-((tetrahydro-2H-pyran-2-yl)methyl)pyrimidin-2(1H)-one], the inhibition at 25 µM was under 25%.
Take `Cc1cc(OCC2COCCO2)cc(=O)n1C(C)c1ccc(C#CC2CC2)cc1` (stereo not drawn) [Compound I-1]: the inhibition at 25 µM is over 75%.
The same measure, in the same setting: the figure for `O=c1cc(OCC2COCCO2)cc(-n2ccc(OCC(F)(F)F)cc2=O)[nH]1` (stereo not drawn) [Compound I-5] is under 25%; for `O=c1cc(OCC2COCCO2)cc(-c2ccc(C#CC3CC3)cc2)[nH]1` (stereo not drawn) [Compound I-8] it is under 25%; for `CSc1nc(OCC2COCCO2)cc(-c2cnc(OCC(F)(F)F)cc2C)n1` (stereo not drawn) [Compound I-9] it is under 25%.
Same read-out and setting: the figure for `O=c1nc(OCC2COCCO2)cc(-c2ccc(OCC(F)(F)F)cc2)[nH]1` (stereo not drawn) [Compound I-10] is under 25%.
Consider `O=c1cnn(CC2CCCCO2)c(-c2ccc(C#CC3CC3)cc2)c1` (stereo not drawn) [Compound I-16], for which the inhibition at 25 µM was under 25%.
`COc1cc(OCC2CCCCO2)cc(-c2ccc(-c3ccc(C)nc3)cc2C)n1` (stereo not drawn) [Compound I-19]: the inhibition at 25 µM lay in the range of 50 to 75%.
For the molecule `Cc1cc(C#CC2CC2)ccc1-c1cncc(OCC2CCCCO2)c1` (stereo not drawn) [Compound I-24], the inhibition at 25 µM is 50 to 75%.
Same read-out and setting: the figure for `CCn1c(-c2ccc(C#CC3CC3)cc2)cc(OCC2COCCO2)cc1=O` (stereo not drawn) [Compound I-26] is 50 to 75%; for `Cn1c(-c2ccc(C#CC3CC3)cc2)nc(OCC2COCCO2)cc1=O` (stereo not drawn) [Compound I-27] it is 25 to 50%.
Still for that read-out and setting: the figure for `COc1nc(OCC2COCCO2)cc(-c2ccc(C#CC3CC3)cc2)n1` (stereo not drawn) [Compound I-29] is under 25%; for `Cc1cc(OCC(F)(F)F)ccc1-c1cccc(OCC2COCCO2)n1` (stereo not drawn) [Compound I-33] it is 25 to 50%.
On the same count and under the same terms, the figure for `Cc1nc(OCC2COCCO2)cc(=O)n1Cc1ccc(C#CC2CC2)cc1` (stereo not drawn) [Compound I-34] is 25 to 50%; for `Cc1cc(OCC2COCCO2)cc(=O)n1Cc1ccc(C#CC2CC2)cc1` (stereo not drawn) [Compound I-35] it is 25 to 50%.
Consider `COc1cc(OCC2COCCO2)cc(-c2ccc(-c3ccc(C)nc3)cc2C)n1` (stereo not drawn) [Compound I-36], for which the inhibition at 25 µM lay within 25 to 50%.
As for `COc1cc(OCC2COCCO2)cc(-c2ccc(OCc3ccccn3)cc2C)n1` (stereo not drawn) [Compound I-37], the inhibition at 25 µM was in the range of 25 to 50%.
On the same count and under the same terms, the figure for `Cc1cc(OCC2COCCO2)nc(=O)n1Cc1ccc(C#CC2CC2)cc1` (stereo not drawn) [Compound I-38] is 25 to 50%; for `COc1cc(OC[C@H]2COCCO2)nc(-c2ccc(OCC(F)(F)F)cc2)c1C` [Compound I-39] it is 25 to 50%.
In turn, `COc1cc(OCC2COCCO2)cc(-c2ccc(C#CC3CC3)cc2)n1` (stereo not drawn) [Compound I-40] came in with an inhibition at 25 µM of under 25%.
Same read-out and setting: the figure for `COc1nc(OCC2COCCO2)cc(-c2ccc(OCC(F)(F)F)cn2)n1` (stereo not drawn) [Compound I-41] is under 25%; for `COc1cc(OCC2CCCOC2)cc(-c2ccc(-c3ccc(C)nc3)cc2C)n1` (stereo not drawn) [Compound I-45] it is 25 to 50%.
On the same count and under the same terms, the figure for `COc1cc(OCC2COCCO2)cc(-c2c(C)cc(OCc3ccccn3)cc2C)n1` (stereo not drawn) [Compound I-46] is 25 to 50%.
